# Results from patent US8203033B2, “Methods and compositions for providing tolerance to multiple herbicides” (Pioneer Hi-Bred International, Inc., priority 2005, dated 2012).
# Legend:
# control maize = test: Evaluation of herbicide tolerance, spray at V2 stage; type: in vivo; conditions: postemergence; tribenuron, chlorimuron, imazapyr 200 g ai/ha; metsulfuron-methyl 35 g ai/ha
# [1] = system: parent elite stiff stalk inbred corn; test: Preemergence test of ALS herbicides on corn (fresh weight, visual injury); type: in vivo; conditions: 200 g/ha, mean of four replications; for % Visual Injury: 0% no injury, 100% plant death; for Fresh Weight: fresh shoots weighed 4 weeks after treatment
# GAT-HRA maize = test: Evaluation of herbicide tolerance, spray at V2 stage; type: in vivo; conditions: postemergence; tribenuron, chlorimuron, imazapyr 200 g ai/ha; metsulfuron-methyl 35 g ai/ha
# Description: GAT-HRA maize plants were evaluated for tolerance to glyphosate and other herbicides. One protocol used in this evaluation was as follows. At the V2 stage (Ritchie and Hanway (1982), “How a corn plant develops” Spec. Rep. 48. (Coop. Ext. Ser., Iowa State Univ., Ames, Iowa)), plant heights were measured and herbicides were applied by spray application. Ten to fourteen days after the spray application, the transgenic plants were evaluated for injury symptoms and measured for plant height again in order to determine plant growth rates.
# Plants were then evaluated at various times after treatment, such as 10 or 14 days after treatment. […] Leaf samples were taken from GAT-HRA plants and used in quantitative PCR analysis and other analyses to determine the number and arrangement of copies of the GAT and HRA polynucleotides that had been integrated into the plant genome.
# Other protocols for evaluation included treatment with imidazolinone herbicides, such as the commercial herbicide Lightning® (a combination of imazapyr and imazethapyr), which was applied to GAT-HRA maize at the V2 leaf stage at four times the field label rate (250 g ai/ha). […] Another protocol for evaluation included treatment with imidazolinone herbicides as well as sulfonylurea and glyphosate herbicides. In these tests, GAT-HRA maize was treated with various combinations of Lightning® (imazapyr and imazethapyr), Basis® (rimsulfuron and thifensulfuron-methyl) and WeatherMAX® (glyphosate potassium salt). These herbicides were applied at the V2 stage as follows: Lightning® at twice the field label rate (1.8 oz ai/ac (133 ml ai/ha)), Basis® at twice the field label rate (0.5 oz ai/ac (36.9 ml ai/ha)) and WeatherMax® at four times the field label rate (43 oz ai/ac). Fourteen days after the treatment application, the plants were evaluated. […] “Field label rate” refers to the application rate specified on the product label. Where the application rate for a particular situation is a range of rates, as used herein, the term “field label rate” indicates the upper end of that range. […]
# [2] = system: Heterozygous GAT-HRA corn; test: Postemergence test of herbicides on corn (fresh weight, visual injury); type: in vivo; conditions: for Fresh Weight: fresh shoots weighed 2 weeks after treatment
# [3] = system: parent elite stiff stalk inbred corn; test: as above; type: in vivo
# [4] = system: Heterozygous GAT-HRA corn; test: Preemergence test of ALS herbicides on corn (fresh weight, visual injury); type: in vivo; conditions: 200 g/ha, mean of four replications; for % Visual Injury: 0% no injury, 100% plant death; for Fresh Weight: fresh shoots weighed 4 weeks after treatment
# [5] = system: non-transformed GS3 embryos; test: Glyphosate kill curve; type: cell-based, maize; conditions: about 40 days culture
# Description: A glyphosate kill curve was established by testing non-transformed embryos response on media with different levels of glyphosate. GS3 embryos were isolated from an immature ear and placed onto media containing glyphosate at 0.0, 0.5, 1.0, and 2.0 mM. After about 40 days culture, the response of the embryos were observed and recorded. Similarly, infected GS3 embryos with the GAT construct were placed onto media containing glyphosate at 0.0, 0.5, 1.0, and 2.0 mM. After about 40 days culture, the response of the infected embryos were observed and recorded (FIG. 7).
# Western or PCR analysis has confirmed that these resistant calli were transformed. Currently, GAT has performed consistently as an effective selectable marker with excellent transformation efficiency in both GS3 and introEF09B genotypes (FIG. 10 and Table 45).
# [6] = system: Hairy Fleabane (Conyza bonariensis); test: Glyphosate, metsulfuron-methyl and two additives on the control of hairy fleabane; type: in vivo
# Description: This example included the same treatments as used in Example 11, except the treatments were carried out on a glyphosate sensitive biotype of Kleinskraalhans (Conyza bonariensis).
# [7] = system: non-glyphosate resistant ryegrass (70-04); test: Glyphosate, metsulfuron-methyl and two additives on the control of ryegrass; type: in vivo
# Description: The example was conducted on non-glyphosate resistant ryegrass. As provided in Table 23, all treatments that included glyphosate [180 g a.i. L ha^−1 (0.5 L glyphosate (SCAT®))] plus metsulfuron-methyl (BRUSH-OFF®) (5 and 10 g ha^−1) gave 100% control of the ryegrass.
# [8] = system: Untransformed Coker 312 control plants; test: Greenhouse over-the-top herbicide spray of cotton; type: in vivo, Gossypium hirsutum
# Source text: (§1) Cotton (Gossypium hirsutum) Coker 312 was transformed with a GAT polynucleotide (gat 4621) together with an Hra polynucleotide (SEQ ID NO:86) both operably linked to strong, constitutive plant viral promoters. The promoter linked to gat4621 contains a duplicated portion of the Strawberry Vein Banding Virus transcript promoter (Wang et al. Virus Genes 20: 11-17, 2000; Genbank X97304). The Hra gene was driven by a duplicated portion of the Mirabilis Mosaic Caulimovirus full-length transcript promoter (U.S. Pat. No. 6,420,547; Dey and Maiti, Transgenics 3:61-70, 1999). The transformation procedure used Agrobacterium tumefaciens containing an expression cassette with the genes to be transferred and cotyledon explant derived callus with some capacity to undergo embryogenesis. The callus was exposed to Agrobacterium for 48-72 hours. The callus was then exposed to selection for transformed cells on 50-200 μg/l chlorosulfuron and/or 50-450 μM glyphosate in solid medium. Glyphosate can also be used in a concentration range of about 5 to about 450 μM. Selection was applied until somatic embryos formed, and selection was again applied at the embryo germination step, and optionally during rooting of plantlets. Over 450 GAT-HRA transformation events were produced using selection with both chlorsulfuron and glyphosate.
# (§2) Transformed cotton plants were rooted and then transferred to soil for further growth. Plants were then subjected to herbicide spray treatments in a greenhouse. […] Untransformed Coker 312 control plants were dead 2 weeks after glyphosate application. […] Plants transformed with both GAT and HRA were further subjected to an “over the top” application of the sulfonylurea herbicide rimsulfuron at a rate of 16 g active ingredient/hectare. […] In further experiments 32 g ai/ha rimsulfuron were applied to the cotton.
# [9] = system: GAT-HRA transgenic cotton plants; test: Greenhouse over-the-top herbicide spray of cotton; type: in vivo, Gossypium hirsutum
# Source text: as §1, §2
# [10] = 200 g/ha, 0% no injury, 100% plant death, mean of four replications
# [11] = 200 g/ha, mean of four replications
# [12] = 200 g/ha, fresh shoots weighed 2 weeks after treatment, mean of four replications
Structure (SMILES),% Visual Injury [1],Fresh Weight [1],"% Visual Injury [2, 10]","% Visual Injury [3, 10]",% Visual Injury [4],"Fresh Weight [3, 12]",also measured
"CCOC(=O)c1ccccc1S(=O)(=O)NC(=O)Nc1nc(Cl)cc(OC)n1 [Chlorimuron-ethyl, ethyl 2-[[[[(4-chloro-6-methoxy-2-pyrimidinyl)amino]carbonyl]amino]sulfonyl]-benzoate]",100%,9.3 g,15%,93%,10%,–,damage from the treatment (control maize): severely damaged or killed; damage from the treatment (GAT-HRA maize): no significant damage
"O=C(O)CNCP(=O)(O)O [Glyphosate, N-phosphonomethylglycine]",–,–,–,–,–,–,"embryos that showed callus initiation ([5]; 0.5 mM glyphosate in medium): about half; callus growth ([5]; 1.0 mM glyphosate in medium): very little callus growth; callus growth ([5]; 2.0 mM glyphosate in medium): very little callus growth; % Visual Injury ([2]; 3472 g ae/ha): 10%; percentage printed with the plants killed ([6]; glyphosate on its own, 10-15 leaf stage): 12%; percentage printed with the plants that died ([7]; 0.5 L ha^−1 glyphosate (SCAT)): 12%; plants that eventually died ([7]; 0.5 L ha^−1 glyphosate (SCAT)): 15 of the 16; % Visual Injury ([3]; 3472 g ae/ha): 100%; Fresh Weight ([3]; 3472 g ae/ha, 2 weeks after treatment): 1.0 g; state of control plants after application ([8]; 1.5 lb acid equivalent per acre, 4-6 leaf stage, 2 weeks after application): dead; GAT-HRA transgenic plants that showed no deleterious symptoms ([9]; 1.5 lb acid equivalent per acre, 4-6 leaf stage, 14 days after application): approximately 50%"
CC(C)C1(C)N=C(c2ncccc2C(=O)O)NC1=O (stereo not shown) [Imazapyr],–,–,–,–,–,–,damage from the treatment (control maize): severely damaged or killed; damage from the treatment (GAT-HRA maize): no significant damage
COC(=O)c1ccccc1S(=O)(=O)NC(=O)Nc1nc(C)nc(OC)n1 [Metsulfuron-methyl (BRUSH-OFF ®)],–,–,–,–,–,–,Control (%) ([6]; Trial 2: metsulfuron-methyl (BRUSH-OFF) 5 g/ha): 100%; Control (%) ([6]; Trial 3: metsulfuron-methyl (BRUSH-OFF) 10 g/ha): 100%
"COC(=O)c1ccccc1S(=O)(=O)NC(=O)Nc1nc(C)nc(OC)n1 [Metsulfuron-methyl, methyl 2-[[[[(4-methoxy-6-methyl-1,3,5-triazin-2-yl)amino]carbonyl]amino]sulfonyl]benzoate]",–,0.0 g,–,–,–,–,"damage from the treatment (control maize): severely damaged or killed; damage from the treatment (GAT-HRA maize): no significant damage; effect on the ryegrass, on its own ([7]; 5-6 leaf stage): did nothing accept stunt the ryegrass plants slightly"
"CCCOc1nn(C(=O)NS(=O)(=O)c2ccccc2C(=O)OC)c(=O)n1C [Propoxycarbazone Na^+, methyl 2-[[[(4,5-dihydro-4-methyl-5-oxo-3-propoxy-1H-1,2,4-triazol-1-yl)carbonyl]amino]sulfonyl]benzoate]",100%,0.6 g,9%,100%,100%,1.9 g,"Fresh Weight [2, 11]: 101.2 g; Fresh Weight [4]: 46.7 g"
CO/N=C(/C)c1cccc(Oc2nc(OC)cc(OC)n2)c1C(=O)OC [Pyriminobac-methyl],83%,–,4%,93%,20%,7.6 g,–
"COc1cc(OC)nc(Sc2cccc(Cl)c2C(=O)[O-])n1.[Na+] [Pyrithiobac Na^+, Pyrithiobac]",–,0.0 g,–,–,–,2.8 g,"Fresh Weight [2, 11]: 87.9 g; Fresh Weight [4]: 48.6 g"
"CCS(=O)(=O)c1cccnc1S(=O)(=O)NC(=O)Nc1nc(OC)cc(OC)n1 [Rimsulfuron, N-[[(4,6-dimethoxy-2-pyrimidinyl)amino]carbonyl]-3-(ethylsulfonyl)-2-pyridinesulfonamide]",–,–,–,–,–,–,"damage of untransformed plants ([8]; 16 g active ingredient/hectare, in the absence of any glyphosate application): severe damage; transgenic plants that showed no deleterious symptoms from the dual herbicide application ([9]; rimsulfuron 16 g active ingredient/hectare after glyphosate 1.5 lb ae/acre, 14 days after rimsulfuron, 28 days after glyphosate): approximately 35%"
"COC(=O)c1ccccc1S(=O)(=O)NC(=O)Nc1nc(C)cc(C)n1 [Sulfometuron-methyl, methyl 2-[[[[(4,6-dimethyl-2-pyrimidinyl)amino]carbonyl]amino]sulfonyl]-benzoate]",100%,0.0 g,2%,100%,6%,2.0 g,–
"COc1cc(OC)nc(NC(=O)NS(=O)(=O)c2ncccc2OCC(F)(F)F)n1 [Trifloxysulfuron Na^+, N-[[(4,6-dimethoxy-2-pyrimidinyl)amino]-carbonyl]-3-(2,2,2-trifluoroethoxy)-2-pyridinesulfonamide]",100%,0.0 g,29%,100%,0%,1.0 g,–
O=C(O)CNCP(=O)(O)O [glyphosate (ROUNDUP ®)],–,–,–,–,–,–,Control (%) ([6]; Trial 1: glyphosate (ROUNDUP) 0.5 L/ha): 12%
